Measured values from article PMC6829278, “Suitability of GnRH Receptors for Targeted Photodynamic Therapy in Head and Neck Cancers” (International Journal of Molecular Sciences, 2019).
Read-outs that look alike come from different tables or passages of the source. Square brackets hold non-standard residues; d marks the D form. Peptide text beside a SMILES is read from it. * marks the point of attachment. X1 = C=CC1=C(C)c2cc3[nH]c(cc4nc(cc5[nH]c(cc1n2)c(C)c5CCC(=O)O)C(CCC(=O)*)=C4C)c(C)c3C=C; pGlu = O=C1CC[C@@H](C(=O)O)N1; Butyryl = CCCC(=O)*

What was measured:
[1] = molecular target: T1, GnRH-R (membranes of human pituitary) (Homo sapiens, UniProt P30968); test: Radioligand binding (ligand competition) assay, displacement of [125I]-[6D-Trp]-GnRH-I, human pituitary membranes; settings: for Inhibition of the binding of [125I]-[6D-Trp]-GnRH-I: at a concentration of 10^-6 M, tissue (human pituitary / human prostate cancer) not specified
T1 construct: Tissue samples derived by autopsy from normal human pituitary (anterior lobe); from tissue; host or cells: normal human pituitary (anterior lobe), autopsy; membrane homogenates
T1 sequence (P30968 1-328): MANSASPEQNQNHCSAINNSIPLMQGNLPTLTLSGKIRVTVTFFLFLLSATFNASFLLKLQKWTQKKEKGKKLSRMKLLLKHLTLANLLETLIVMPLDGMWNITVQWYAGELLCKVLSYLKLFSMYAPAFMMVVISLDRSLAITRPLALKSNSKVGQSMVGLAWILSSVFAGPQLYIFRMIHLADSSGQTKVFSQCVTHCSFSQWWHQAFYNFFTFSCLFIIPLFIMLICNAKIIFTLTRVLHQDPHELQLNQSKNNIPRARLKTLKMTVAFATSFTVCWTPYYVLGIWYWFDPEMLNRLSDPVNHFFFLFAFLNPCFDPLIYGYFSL
Text: (§1) The binding potency of the GnRH analogs and the GnRH-PpIX conjugates to human pituitary and human prostate cancer cells, that express GnRH-R in high concentration, was investigated by ligand competition assay.
(§2) Tissue samples derived by autopsy from normal human pituitary (anterior lobe) and human prostate cancer cells were obtained from a patient at the time of initial surgical treatment. The collection and the use of these specimens for our studies are approved by the local Institutional Ethics Committee. […] The assay was performed as described earlier. […] At the end of the incubation, 125 µL aliquots of suspension were transferred onto the top of 1 mL of ice-cold binding buffer containing 1.5% BSA in microcentrifuge tubes. The tubes were centrifuged at 12,000× g for 3 min at 4 °C. Supernatants were aspirated and the pellet was counted in a gamma counter. Protein concentration was determined by the method of Bradford, using a Bio-Rad protein assay kit (Bio-Rad Laboratories, Hercules, CA, USA). The LIGAND-PC computerized curve-fitting program of Munson and Rodbard was used to determine the receptor binding characteristics and IC50 values.

[2] = test system: Detroit-562 human pharyngeal carcinoma cells; test: cells; settings: for Effect of incubation time on cell viability inhibition: incubation 1, 3 or 5 h
Procedure: (compound 5) was used for the optimization of the conditions of the cell viability inhibition assays. First, the irradiation time was optimized. Detroit-562 pharyngeal cells were treated with the peptide-PpIX conjugate for 5 h, the unbound conjugate was washed out, and then the cells were irradiated for 0, 2, 10, or 30 min followed by 72 h of further incubation (Figure 6A).
Afterwards, the incubation time was optimized.
The cell viability inhibition of the synthesized GnRH-PpIX conjugates was measured on Detroit-562 cells using the previously optimized conditions (5 h treatment, 10 min irradiation).
Cells were seeded to 96-well plates (6·× 10^3 cells/well) 48 h prior to the treatment. The cells were treated with the peptides (10 μM) and conjugates (0.025–10 μM) in darkness. Stock solutions of the compounds were prepared in DMSO (5 mM) and all dilutions were made to contain 0.2% DMSO final concentration. The control wells were treated with medium or 0.2% DMSO containing medium. After 1, 3, or 5 h, the cells were washed once with medium, irradiated for 0, 2, 10, or 30 min and incubated for a further 72 h. The irradiation was performed by an Oriel type 250 W Quartz Tungsten Halogen lamp (Newport Corporation, CA, USA) with a 550 nm emission maximum. The light was filtered to exclude UV and IR components. The fluence rate was determined by a 10 A-P Nova laser power/energy monitor (Ophir, Optronix, Jerusalem, Israel) using the pyro-electric detector. Then, the MTT-test was performed according to the manufacturer’s instructions. Each point was measured using 3 parallels and each experiment was repeated twice.

[3] = molecular target: T2, GnRH-R (membranes of human prostate cancer cells) (Homo sapiens, UniProt P30968); test: Radioligand binding (ligand competition) assay, displacement of [125I]-[6D-Trp]-GnRH-I, human prostate cancer membranes
T2 construct: human prostate cancer cells were obtained from a patient at the time of initial surgical treatment; from tissue; host or cells: human prostate cancer specimen from a patient at surgery; membrane homogenates
T2 sequence (P30968 1-328): T1 sequence (P30968 1-328)
Text: as §1, §2

[4] = Detroit-562, 10 min irradiation
[5] = membranes of human pituitary, read-out: IC50 Values, inhibition of [125I]-[6D-Trp]-GnRH-I binding, Human Pituitary
[6] = membranes of human prostate cancer cells, read-out: IC50 Values, inhibition of [125I]-[6D-Trp]-GnRH-I binding, Human Prostate Cancer
[7] = Detroit-562, 0.1 µM, 5 h treatment, 10 min irradiation

Row | Inhibition of the binding of [125I]-[6D-Trp]-GnRH-I [1] | IC50 [1, 5] [nM] | IC50 [3, 6] [nM] | Molecule | other results
1 |  | 9.7 ± 1.07 | 8.61 ± 1.08 | CCCC(=O)NCCCC[C@H](NC(=O)[C@H](Cc1c[nH]c2ccccc12)NC(=O)[C@H](Cc1c[nH]cn1)NC(=O)[C@@H]1CCC(=O)N1)C(=O)N[C@@H](Cc1ccc(O)cc1)C(=O)N[C@H](CCCCN)C(=O)N[C@@H](CC(C)C)C(=O)N[C@@H](CCCNC(=N)N)C(=O)N1CCC[C@H]1C(=O)NCC(N)=O [compound 2, GnRH-I[^4Lys(Bu), ^6D-Lys]] ([pGlu]HWK(Butyryl)Y[dK]LRPG-NH2) | 
2 |  | 5.56 ± 1.07 | 4.65 ± 0.31 | CCCC(=O)NCCCC[C@H](NC(=O)[C@H](Cc1c[nH]c2ccccc12)NC(=O)[C@H](Cc1c[nH]cn1)NC(=O)[C@@H]1CCC(=O)N1)C(=O)N[C@@H](Cc1c[nH]cn1)C(=O)N[C@H](CCCCN)C(=O)N[C@@H](Cc1c[nH]c2ccccc12)C(=O)N[C@@H](Cc1ccc(O)cc1)C(=O)N1CCC[C@H]1C(=O)NCC(N)=O [compound 3, GnRH-II[^4Lys(Bu), ^6D-Lys]] ([pGlu]HWK(Butyryl)H[dK]WYPG-NH2) | 
3 |  | 7.27 ± 0.92 | 6.56 ± 1.11 | CCCC(=O)NCCCC[C@H](NC(=O)[C@H](Cc1c[nH]c2ccccc12)NC(=O)[C@H](Cc1c[nH]cn1)NC(=O)[C@@H]1CCC(=O)N1)C(=O)N[C@@H](Cc1c[nH]cn1)C(=O)N[C@@H](CC(=O)OC)C(=O)N[C@@H](Cc1c[nH]c2ccccc12)C(=O)N[C@@H](CCCCN)C(=O)N1CCC[C@H]1C(=O)NCC(N)=O [compound 4, GnRH-III[^4Lys(Bu), ^6Asp(OMe)]] | 
4 |  | 36.3 ± 3.17 | 42.7 ± 7.04 | C=CC1=C(C)c2cc3[nH]c(cc4nc(cc5[nH]c(cc1n2)c(C)c5CCC(=O)O)C(CCC(=O)NCCCC[C@@H](NC(=O)[C@H](Cc1ccc(O)cc1)NC(=O)[C@H](CO)NC(=O)[C@H](Cc1c[nH]c2ccccc12)NC(=O)[C@H](Cc1c[nH]cn1)NC(=O)[C@@H]1CCC(=O)N1)C(=O)N[C@@H](CC(C)C)C(=O)N[C@@H](CCCNC(=N)N)C(=O)N1CCC[C@H]1C(=O)NCC(N)=O)=C4C)c(C)c3C=C [compound 5, GnRH-I[^6D-Lys(PpIX)]] | IC50 ([2]; 5 h): 62.3 ± 5.9 nM; Cell viability inhibition [2, 7]: > 90%; Cell viability inhibition (irradiation time optimization) [2, 7]: ~ 98%; Cell viability inhibition (irradiation time optimization) ([2]; Detroit-562, 0.1 µM, 5 h treatment, 30 min irradiation): ~ 98%; Toxicity in the absence of light ([2]; Detroit-562, 5 h treatment, 0 min irradiation, 72 h further incubation): non-toxic; Cell viability inhibition ([2]; Detroit-562, 5 h treatment, 2 min irradiation, sub-micromolar concentration): 50%; Effect of incubation time on cell viability inhibition [2, 4]: higher activity
5 |  | 42.3 ± 4.27 | 41.8 ± 5.74 | C=CC1=C(C)c2cc3[nH]c(cc4nc(cc5[nH]c(cc1n2)c(C)c5CCC(=O)O)C(CCC(=O)NCCCC[C@@H](NC(=O)[C@H](Cc1ccc(O)cc1)NC(=O)[C@H](CCCCNC(=O)CCC)NC(=O)[C@H](Cc1c[nH]c2ccccc12)NC(=O)[C@H](Cc1c[nH]cn1)NC(=O)[C@@H]1CCC(=O)N1)C(=O)N[C@@H](CC(C)C)C(=O)N[C@@H](CCCNC(=N)N)C(=O)N1CCC[C@H]1C(=O)NCC(N)=O)=C4C)c(C)c3C=C [compound 6, GnRH-I[^4Lys(Bu), ^6D-Lys(PpIX)]] ([pGlu]HWK(Butyryl)Y[dK](X1)LRPG-NH2) | IC50 ([2]; 5 h): 89.8 ± 19.4 nM; Cell viability inhibition [2, 7]: 65–70%
6 |  | 79.4 ± 8.88 | 84.5 ± 10.3 | C=CC1=C(C)c2cc3[nH]c(cc4nc(cc5[nH]c(cc1n2)c(C)c5CCC(=O)O)C(CCC(=O)NCCCC[C@@H](NC(=O)[C@H](Cc1c[nH]cn1)NC(=O)[C@H](CCCCNC(=O)CCC)NC(=O)[C@H](Cc1c[nH]c2ccccc12)NC(=O)[C@H](Cc1c[nH]cn1)NC(=O)[C@@H]1CCC(=O)N1)C(=O)N[C@@H](Cc1c[nH]c2ccccc12)C(=O)N[C@@H](Cc1ccc(O)cc1)C(=O)N1CCC[C@H]1C(=O)NCC(N)=O)=C4C)c(C)c3C=C [compound 7, GnRH-II[^4Lys(Bu), ^6D-Lys(PpIX)]] ([pGlu]HWK(Butyryl)H[dK](X1)WYPG-NH2) | IC50 ([2]; 5 h): 71.1 ± 6.2 nM; Cell viability inhibition [2, 7]: > 90%
7 |  |  |  | C=CC1=C(C)c2cc3[nH]c(cc4nc(cc5[nH]c(cc1n2)c(C)c5CCC(=O)O)C(CCC(=O)NCCCC[C@H](NC(=O)[C@H](Cc1c[nH]c2ccccc12)NC(=O)[C@H](CC(=O)OC)NC(=O)[C@H](Cc1c[nH]cn1)NC(=O)[C@H](CCCCNC(=O)CCC)NC(=O)[C@H](Cc1c[nH]c2ccccc12)NC(=O)[C@H](Cc1c[nH]cn1)NC(=O)[C@@H]1CCC(=O)N1)C(=O)N1CCC[C@H]1C(=O)NCC(N)=O)=C4C)c(C)c3C=C [compound 8, GnRH-III[^4Lys(Bu), ^6Asp(OMe), ^8Lys(PpIX)]] | IC50 [1]: 289 ± 17.3 nM; IC50 [3]: 341 ± 21.1 nM; Cell viability inhibition [2, 7]: 65–70%; IC50 ([2]; read-out: Calculated IC50 values, cell viability inhibition, Detroit-562 cells, 5 h incubation, 10 min irradiation, further 72 h, MTT): 81.8 ± 12.6 nM
8 | did not inhibit |  |  | EGF: peptide used as binding specificity control [reference compound] | 
9 | did not inhibit |  |  | IGF-I: peptide used as binding specificity control [reference compound] | 
10 | did not inhibit |  |  | VIP: peptide used as binding specificity control [reference compound] | 
11 | did not inhibit |  |  | glucagon: peptide used as binding specificity control [reference compound] | 
12 | did not inhibit |  |  | hGHRH: peptide used as binding specificity control [reference compound] | 

Row | Molecule | Inhibition of the binding of [125I]-[6D-Trp]-GnRH-I [1] | IC50 [1, 5] [nM] | IC50 [3, 6] [nM] | other results
13 | C=CC1=C(C)c2cc3[nH]c(cc4nc(cc5[nH]c(cc1n2)c(C)c5CCC(=O)O)C(CCC(=O)O)=C4C)c(C)c3C=C [PpIX, Protoporphyrin IX, reference compound] | did not inhibit |  |  | Cell viability inhibition ([2]; Detroit-562, 0.25 µM, 5 h treatment, 10 min irradiation): ~ 50%; Effect of incubation time on cell viability inhibition [2, 4]: no significant difference; IC50 ([2]; Homo sapiens, Detroit 562, light or radiation study, read-out: Calculated IC50 values, cell viability inhibition): 209 ± 120 nM
14 | somatostatin-14: peptide structurally and/or functionally unrelated to GnRH, binding specificity control [reference compound] | did not inhibit |  |  | 
